Here are results for one molecule from patent US6346549B1, “Treatment of pharmacology of drug misuse and other addictive disorders” (Knoll Pharmaceutical Company, priority 1999, dated 2002).

Test [1] concerns the target [3H]Dopamine reuptake in rat brain tissue (Rattus norvegicus, UniProt P23977). As to the kind of experiment: biochemical.
For test [2], the target named is T1, [3H]Noradenaline reuptake in rat brain tissue (Rattus norvegicus).
T1 construct: in rat brain tissue; from tissue; host or cells: rat brain tissue
T1 sequence (Q63380 1-617): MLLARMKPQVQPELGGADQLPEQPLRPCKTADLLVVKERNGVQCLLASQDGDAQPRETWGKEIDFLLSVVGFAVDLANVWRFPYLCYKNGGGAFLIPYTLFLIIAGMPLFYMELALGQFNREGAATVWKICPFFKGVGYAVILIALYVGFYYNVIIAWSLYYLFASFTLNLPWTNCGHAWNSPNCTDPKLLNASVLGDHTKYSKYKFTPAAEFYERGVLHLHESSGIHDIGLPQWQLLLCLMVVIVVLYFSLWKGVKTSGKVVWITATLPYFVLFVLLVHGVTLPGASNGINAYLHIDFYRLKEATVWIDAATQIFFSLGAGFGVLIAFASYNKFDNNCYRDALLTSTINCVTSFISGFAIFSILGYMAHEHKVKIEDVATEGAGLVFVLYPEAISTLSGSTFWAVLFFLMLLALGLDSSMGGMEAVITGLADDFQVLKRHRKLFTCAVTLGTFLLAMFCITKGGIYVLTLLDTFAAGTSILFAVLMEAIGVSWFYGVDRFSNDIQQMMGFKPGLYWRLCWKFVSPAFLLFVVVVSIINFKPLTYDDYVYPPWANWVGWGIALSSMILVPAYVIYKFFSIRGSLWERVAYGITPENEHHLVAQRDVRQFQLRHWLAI
As to the kind of experiment: in vitro [3H]noradrenaline reuptake inhibition in rat brain tissue. The test is classed as biochemical. To be noted: monoamine reuptake inhibition, means of ≧3 separate determinations.

Chain of [3H]Dopamine reuptake in rat brain tissue (P23977 whole entry): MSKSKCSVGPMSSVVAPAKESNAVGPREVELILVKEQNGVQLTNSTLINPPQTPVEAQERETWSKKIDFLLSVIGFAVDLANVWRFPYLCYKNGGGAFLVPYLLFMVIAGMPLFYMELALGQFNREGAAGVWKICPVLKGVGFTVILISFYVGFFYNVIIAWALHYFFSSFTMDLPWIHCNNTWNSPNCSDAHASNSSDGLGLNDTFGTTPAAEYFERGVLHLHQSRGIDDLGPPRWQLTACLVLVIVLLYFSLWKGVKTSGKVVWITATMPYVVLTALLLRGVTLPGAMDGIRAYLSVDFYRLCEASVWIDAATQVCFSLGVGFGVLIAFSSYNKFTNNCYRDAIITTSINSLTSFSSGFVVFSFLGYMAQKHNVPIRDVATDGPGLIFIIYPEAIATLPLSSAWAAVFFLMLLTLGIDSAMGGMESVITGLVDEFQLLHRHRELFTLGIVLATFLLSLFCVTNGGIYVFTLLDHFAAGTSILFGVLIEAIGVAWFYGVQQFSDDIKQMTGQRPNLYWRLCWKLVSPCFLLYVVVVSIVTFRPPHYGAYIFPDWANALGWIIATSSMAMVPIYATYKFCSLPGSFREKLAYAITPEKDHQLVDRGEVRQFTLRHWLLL

In the case of `CC(NC(C)(C)C)C(=O)c1cccc(Cl)c1` (centres unmarked) [Bupropion], the Ki in test [1] worked out at 409 nM; in test [2], 2590 nM.
